Experimental findings from patent publication US11420966B2 (ACLARIS THERAPEUTICS, INC., priority 2019, dated 2022) are described below.

Some results are limits rather than exact numbers.

For data set [1], the system named is IL-12 stimulated STAT4 phosphorylation on Tyr693 (JAK2/TYK2). Nature of the data set: JAK2/TYK2 cellular target modulation: IL-12 stimulated phospho-STAT4 in PBMC. To be noted: human PBMC, IL-12 1.7 ng/ml; read-out: IL12-STAT4 IC50. The class given is cell-based. Summed up: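 Thawed human PBMC (200,000/well, RPMI/10% FBS) were preincubated with compound for 1 h at 37 °C, added from 10× stocks in 1% DMSO. Stimulation and read-out: IL-2 25 ng/ml, 5 min, pSTAT5 by MSD; IL-12 1.7 ng/ml, 25 min, pSTAT4 by MSD; IFNγ 10 ng/ml, 10 min, pSTAT1 by sandwich ELISA.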

Another data set addresses JAK2 (Homo sapiens (Human), UniProt O60674). Nature of the data set: JAK2 enzyme activity assay (Thermo Fisher SelectScreen, Z-lyte). In kind it is biochemical. To be noted: read-out: JAK2 Inhibition IC50. Summed up: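 Z-lyte FRET kinase assay: 0.12-0.5 ng JAK2 with […] Tyr 06 peptide in 50 mM HEPES pH 7.5, 0.01% BRIJ-35, 10 mM MgCl2, 1 mM EGTA, 1 h reaction before development reagent. 11-point dose-response from […] to 0.34 nM, 2% DMSO; IC50 from 4-parameter fit of emission ratio.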

A short description of another data set: GI Exposure PK in Mice. The class given is in vivo. To be noted: mouse, male BalbC mice, oral dose of 5 mg/kg. As for the experimental part: The test compound was wetted with ˜0.025% of Tween-20 and triturated in a mortar and pestle, then slowly 0.5% of methyl cellulose was added to make up the final volume to 7.25 mL. The BalbC test animals were subjected to anesthesia induced with a mixture of 5% isoflurane and 0.8-1.5 L/min 02 gas flow. The formulated test compound was then dosed via oral gavage. At various time points (0.5, 1, 2, 4, 6 and 8 h) blood samples (˜100 μL) were collected from portal vein (pre-hepatic) followed by cardiac puncture (circulating) into tubes containing 2% w/v aqueous K2 EDTA solution as per time points. Post blood sampling, the gastro intestine (GI) tissues were collected from the mice at the same time points. The GI tissue was dissected into different parts as duodenum, jejunum, ileum and colon. The separated tissues were washed by flushing with PBS via oral gavage needle to remove GI content. Post collection all the tissues were blotted, weighed and homogenized with PBS buffer (pH 7.4). The blood samples were immediately placed on ice and centrifuged within 30 min at 4° C. for 5 min at 8,000 rpm to obtain plasma. Plasma was transferred by pipettes to pre-labelled centrifuge tubes and immediately transferred to −80° C. until bioanalysis. Tissue samples were placed in pre-labelled container and all samples were kept in −80° C. until homogenized. The homogenate was stored immediately in −80° C. until bioanalysis was conducted. Study samples were thawed to room temperature and 50 μL of sample was aliquoted into pre-labeled vials. To these was added 400 μL of 100% acetonitrile containing an IS (100 ng/mL; warfarin, tolbutamide and loperamide). The vials were mixed well, vortexed for 5 min, followed by centrifugation for 5 min at 14000 rpm at 4° C. The supernatant was separated and same was injected on LC-MS/MS. Plasma and GI tissue levels of test compound were determined by LC-MS analysis using a standard curve in the text matrix. Individual concentration-time data were analyzed using Phoenix WinNonlin (Version 8.1) by the non-compartmental analysis (NCA) method.

Setting [2] is: portal vein plasma (pre-hepatic), Portal plasma.

Chain of JAK2 (O60674 whole entry): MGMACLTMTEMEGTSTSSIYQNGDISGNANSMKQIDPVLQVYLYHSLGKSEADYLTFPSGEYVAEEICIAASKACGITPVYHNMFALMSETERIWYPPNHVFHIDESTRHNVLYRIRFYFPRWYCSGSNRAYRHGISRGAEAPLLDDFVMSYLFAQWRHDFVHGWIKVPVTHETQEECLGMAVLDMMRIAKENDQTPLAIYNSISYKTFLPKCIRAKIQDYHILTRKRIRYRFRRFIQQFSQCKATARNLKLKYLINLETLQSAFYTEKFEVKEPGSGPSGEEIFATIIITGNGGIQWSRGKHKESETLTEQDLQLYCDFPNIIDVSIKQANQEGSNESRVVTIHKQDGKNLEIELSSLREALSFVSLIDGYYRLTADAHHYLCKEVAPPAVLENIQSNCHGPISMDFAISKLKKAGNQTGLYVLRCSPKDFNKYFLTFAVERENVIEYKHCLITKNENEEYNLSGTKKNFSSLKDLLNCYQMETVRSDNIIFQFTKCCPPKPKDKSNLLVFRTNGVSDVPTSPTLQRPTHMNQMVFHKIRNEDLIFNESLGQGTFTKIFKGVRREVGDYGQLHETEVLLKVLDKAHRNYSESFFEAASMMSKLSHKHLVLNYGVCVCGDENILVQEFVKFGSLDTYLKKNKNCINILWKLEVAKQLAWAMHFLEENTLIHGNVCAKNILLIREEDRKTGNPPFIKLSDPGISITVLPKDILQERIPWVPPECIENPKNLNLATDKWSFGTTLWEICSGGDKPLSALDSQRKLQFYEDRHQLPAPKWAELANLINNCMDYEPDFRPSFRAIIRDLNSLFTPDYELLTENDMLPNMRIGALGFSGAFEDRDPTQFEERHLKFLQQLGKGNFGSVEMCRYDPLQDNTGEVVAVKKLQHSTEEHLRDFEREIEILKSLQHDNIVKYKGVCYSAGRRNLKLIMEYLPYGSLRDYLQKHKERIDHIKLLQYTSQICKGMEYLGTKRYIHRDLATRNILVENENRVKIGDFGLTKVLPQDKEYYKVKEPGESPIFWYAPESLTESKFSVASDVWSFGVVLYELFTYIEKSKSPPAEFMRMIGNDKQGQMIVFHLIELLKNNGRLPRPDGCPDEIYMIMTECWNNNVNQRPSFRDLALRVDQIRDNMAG

`CNC(=O)c1coc(-c2cnc3[nH]ccc3c2N[C@@H]2C[C@H](C)CN(C(=O)CC#N)C2)n1` [Example 31, 2-(4-(((3R,5S)-1-(2-cyanoacetyl)-5-methylpiperidin-3-yl)amino)-1H-pyrrolo[2,3-b]pyridin-5-yl)-N-methyloxazole-4-carboxamide]: the IC50 is over 1000 nM in data set [1] and at most 10 nM on JAK2. Further, the Tmax in the data set “GI Exposure PK in Mice” (circulating plasma (cardiac puncture), Circulating plasma) was found to be 4 h; in the data set “GI Exposure PK in Mice” (setting [2]), 0.5 h; in the data set “GI Exposure PK in Mice” (Colon), 4 h; in “GI Exposure PK in Mice” (Duodenum), 0.5 h; in “GI Exposure PK in Mice” (Ileum) it was 2 h; in “GI Exposure PK in Mice” (Jejunum), 0.5 h. Also, the Cmax in “GI Exposure PK in Mice” (circulating plasma (cardiac puncture), Circulating plasma, two of three subjects, third BLQ) turned out to be 9.2 ng/mL; in the data set “GI Exposure PK in Mice” (setting [2]), 11.3 ng/mL; in the data set “GI Exposure PK in Mice” (Colon) it was 1290 ng/g; in “GI Exposure PK in Mice” (Duodenum), 2880 ng/g; in the data set “GI Exposure PK in Mice” (Ileum) it was 43800 ng/g; in “GI Exposure PK in Mice” (Jejunum), 37000 ng/g. For the same compound, the AUC in the data set “GI Exposure PK in Mice” (setting [2]) is 17.2 ng·h/mL; in the data set “GI Exposure PK in Mice” (Colon), 6820 ng·h/mL; in “GI Exposure PK in Mice” (Duodenum), 4660 ng·h/mL; in “GI Exposure PK in Mice” (Ileum), 82500 ng·h/mL; in “GI Exposure PK in Mice” (Jejunum) it was 57400 ng·h/mL.

Broadly, the IC50 is the concentration at which inhibition is half-maximal. In general, Tmax refers to the time from dosing to the highest level. A word on the Cmax: it is the peak of the concentration-time curve. What is called AUC is the area under the concentration-time curve, a measure of exposure. A low value points to low exposure.
